In patent publication EP1247803A2, “Indolinone compounds suitable for modulation of protein kinases” (Sugen, Inc., priority 1996, dated 1998):

Biological target: T1, FLK-1 receptor (Mus musculus, UniProt P35918)
T1 construct: expressed in transfected cells; host or cells: NIH3T3 C7#3
Assay: FLK-1 ELISA (kinase activity of the FLK-1 receptor in FLK-1/NIH3T3 cells, VEGF stimulated)
Format: cell-based
Procedure, shortened: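 FLK-1-expressing NIH3T3 C7#3 cells, starved overnight in 0.1% FBS medium, were treated with compounds at a 1:200 final dilution (0.5% DMSO) for 2 h at 37 °C, with VEGF stimulation. FLK-1 kinase activity was read by ELISA on anti-rabbit IgG plates using affinity-purified anti-FLK-1 antiserum.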

T1 sequence (P35918 20-1345): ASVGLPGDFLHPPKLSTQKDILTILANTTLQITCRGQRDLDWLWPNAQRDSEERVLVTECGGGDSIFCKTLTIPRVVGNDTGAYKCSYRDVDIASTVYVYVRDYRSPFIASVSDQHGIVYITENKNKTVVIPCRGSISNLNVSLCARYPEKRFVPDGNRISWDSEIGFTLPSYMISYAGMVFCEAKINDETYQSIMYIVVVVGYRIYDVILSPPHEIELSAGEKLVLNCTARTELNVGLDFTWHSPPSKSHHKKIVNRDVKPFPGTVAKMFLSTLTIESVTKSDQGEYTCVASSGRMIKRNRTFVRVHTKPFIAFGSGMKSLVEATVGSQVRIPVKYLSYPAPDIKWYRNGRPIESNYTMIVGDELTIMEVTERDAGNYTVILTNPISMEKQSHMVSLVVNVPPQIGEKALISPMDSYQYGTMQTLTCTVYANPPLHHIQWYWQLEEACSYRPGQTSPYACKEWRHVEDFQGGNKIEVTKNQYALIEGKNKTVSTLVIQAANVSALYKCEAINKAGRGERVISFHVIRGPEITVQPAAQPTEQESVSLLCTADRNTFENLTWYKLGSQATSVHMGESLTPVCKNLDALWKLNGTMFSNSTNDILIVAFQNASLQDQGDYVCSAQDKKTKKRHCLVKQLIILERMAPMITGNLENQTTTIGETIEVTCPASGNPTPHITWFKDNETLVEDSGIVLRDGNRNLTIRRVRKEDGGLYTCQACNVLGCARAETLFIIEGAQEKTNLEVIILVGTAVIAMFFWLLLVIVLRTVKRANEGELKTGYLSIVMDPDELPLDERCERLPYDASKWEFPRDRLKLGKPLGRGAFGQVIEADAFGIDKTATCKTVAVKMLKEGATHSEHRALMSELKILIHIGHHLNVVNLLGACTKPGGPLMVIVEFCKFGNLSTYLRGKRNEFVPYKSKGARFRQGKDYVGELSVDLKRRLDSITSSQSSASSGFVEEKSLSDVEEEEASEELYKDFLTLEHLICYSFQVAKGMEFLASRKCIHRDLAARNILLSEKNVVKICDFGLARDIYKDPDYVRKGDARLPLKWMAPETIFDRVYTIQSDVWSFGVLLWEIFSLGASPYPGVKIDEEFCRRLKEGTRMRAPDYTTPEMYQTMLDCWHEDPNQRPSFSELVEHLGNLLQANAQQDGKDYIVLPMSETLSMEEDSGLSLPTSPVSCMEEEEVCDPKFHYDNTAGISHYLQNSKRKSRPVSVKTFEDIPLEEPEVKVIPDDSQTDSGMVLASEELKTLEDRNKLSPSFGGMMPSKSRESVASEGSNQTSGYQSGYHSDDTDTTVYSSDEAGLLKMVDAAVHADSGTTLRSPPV

SMILES: O=C1Nc2ccc(I)cc2C1=Cc1ccco1 [10718/B10]
- Fik Kinase %Inhibition: 20.1%
